# Results published in patent US20240217973A1, “IMIDAZOPYRIDINE COMPOUNDS AND USE THEREOF” (MEDSHINE DISCOVERY INC., priority 2021, published 2024).
# Columns and labels:
# [1] = Pharmacokinetic evaluation of compounds in rats; type: in vivo; settings: rat, plasma, SD rats
# Description: Experimental purpose: To test the in vivo pharmacokinetic data of compounds in SD rats.
# (§1) The compound was mixed with the solvent 5% DMSO/5% Solutol/90% H2O, vortexed and sonicated to prepare a 0.5 mg/mL clear solution. The rats were administered the candidate compound solution intravenously. Whole blood was collected for a certain period of time, and plasma was prepared. The drug concentration was analyzed by LC-MS/MS method, and pharmacokinetic parameters were calculated.
# as §1, with “2” for “0.5”, “administered” for “administered the”, “solutions orally.” for “solution intravenously.”
# plasma proteins = assay: Plasma protein binding experiment (PPB), M; type: in vitro ADME, mouse; settings: 2 μM, 4 hours dialysis
# Description: Experimental operation: 995 μL of blank plasma of each genus was taken, 5 μL of working solution of test compound (400 μM) or working solution of warfarin (400 μM) was added, so that the final concentrations of the test compound and warfarin in the plasma sample was 2 μM. The sample was mixed thoroughly. The final concentration of the organic phase DMSO was 0.5%; 50 μL of plasma samples of the test compound and warfarin were pipetted into the sample receiving plate (three parallels), and the corresponding volume of the corresponding blank plasma or buffer was immediately added so that the final volume of each sample well was 100 μL, with a volume ratio of 1:1 for plasma: dialysis buffer, and then 500 μL of stop solution was added to these samples, and these samples would be used as a T0 sample for the recovery and stability determination. […] All samples were analyzed by LC/MS/MS after protein precipitation, and the protein binding rate and recovery rate were calculated by the formula: % Unbound=100*F/T, % Bound=100−% Unbound, % Recovery 100*(F+T) T0 (where F was the peak area ratio of the compound in the dialysate after 4 hours of dialysis; T was the peak area ratio of the compound in the plasma after 4 hours of dialysis, and T0 was the peak area ratio of the compound in the plasma sample at zero time).
# [2] = Hepatocyte metabolic stability experiment (HMS), D; type: in vitro ADME; settings: dog, D hepatocytes, read-out: HMS CLint(liver)
# Description: Experimental operations: 198 μL of hepatocyte suspension (0.51×10^6 cells/mL) was added to the preheated incubation plate, and 198 μL of culture medium without hepatocytes was added to T0-MC and T120-MC incubation plates for the culture medium control group, and all incubation plates were pre-incubated for 10 minutes in a 37° C. incubator. Then 2 μL of the working solution of the test and control compounds were added and mixed well, and the incubation plate was immediately put into the plate shaker in the incubator, the rotation speed was adjusted to about 650 rpm, and the timer and the reaction were started. 2 duplicate samples for each compound were prepared at each time point. Incubation conditions: 37° C., saturated humidity, and containing 5% CO2. In the test system, the final concentration of the test compound was 1 μM, the final concentration of the control compound was 3 μM, the final concentration of hepatocytes was 0.5×10^6 cells/mL, and the final concentration of the total organic solvent was 0.96%, of which the final concentration of DMSO was 0.1%. […] All samples were mixed and analyzed by LC-MS/MS method. […]
# [3] = IV, 1.0 mg/kg (002), 0.85 mg/kg (003B)
# [4] = PO, 9.2 mg/kg (002), 8.4 mg/kg (003B)
smiles,measurement,setting,value
Nc1nccc2c1n(-c1ccc(Oc3ccccc3)cc1)c(=O)n2[C@@H]1CCCN(C(=O)/C=C/CF)C1 [Compound 002],AUC(0-inf),[1]; [3],1.32 µM·h
same,C0,[1]; [3],3.52 µM
same,Vd,[1]; [3],0.7 L/kg
same,clearance,[1]; [3],26 mL/min/kg
same,half-life,[1]; [3],24 min
same,AUC(0-inf),[1]; [4],2.58 µM·h
same,Cmax,[1]; [4],1800 nM
same,Tmax,[1]; [4],22.8 min
same,bioavailability,[1]; [4],18.1%
same,half-life,[1]; [4],107 min
same,Unbound PPB,plasma proteins,4.5%
same,CLint scaled at 1 μM,[2],187 mL/min/kg
